The text below walks through data of patent US7727995B2, “Antiherpes drug combinations” (University of Massachusetts, priority 2003, dated 2010).

Like-named read-outs stand apart in the source and are kept apart here. Marks after values point to notes of the source that are not given here.

The subject of one assay is HSV2. The conditions noted are these: mice, cited from earlier work.
Assay [1] relates to HSV1. As to conditions: cited from earlier work.
Another assay concerns G strain of HSV-2. Nature of the assay: Inhibition of HSV encephalitis in mice, HSV-2 infection. Type of assay: in vivo. As to the method:
(§1) BALB/c female mice at 6 weeks of age were anesthetized, their corneas lightly scratched with a 27-gauge needle, and 3 μl of infectious virus (McKrae strain of HSV-1 or G strain of HSV-2; 5×10^5 PFU) was placed on each cornea. At the time of infection, groups of ten animals were given 0.1 ml injections i.p. of vehicle (corn oil) or test drug or drug combination (e.g., HBPG or foscarnet or both) in vehicle at indicated concentrations, and the animals were returned to their cages and allowed to recover from anesthesia. Treatment was repeated by a regimen optimal for the drug combination and dose. Animals were observed daily for 30 days, and the day of death of each animal was recorded.

Assay [2] deals with HSV1. The conditions noted are these: cited from earlier work. This is another data set of the same source.
The next assay deals with McKrae strain of HSV-1. Nature of the assay: Inhibition of HSV encephalitis in mice, HSV-1 infection. It is filed as in vivo. On the procedure:
as §1

Assay [3] deals with HSV1. As to conditions: 150 μM; trigeminal ganglia of HSV1 latent mice on Vero cells; cited from earlier work.
[4] abbreviates: HSV2, 100 mg/kg ip twice daily, 5 days.
The mark [5] stands for this setting: HSV2, 200 mg/kg ip twice daily, 5 days.
Setting [6] is: HSV2, 400 mg/kg ip twice daily, 5 days.
Where [7] appears, read: Table 2, HSV2, 50 mg/kg ip, bid, 5 d.
The mark [8] stands for this setting: Table 2, HSV2, 100 mg/kg ip, bid, 5 d.
Setting [9] is: HSV1, 100 mg/kg ip twice daily, 5 days, observed 30 days.
The mark [10] stands for this setting: HSV1, 200 mg/kg ip twice daily, 5 days.
Where [11] appears, read: HSV1, 400 mg/kg ip twice daily, 5 days.
Where [12] appears, read: HSV1, 25 mg/kg ip in corn oil, twice daily for five days.
The mark [13] stands for this setting: HSV1, 50 mg/kg ip in corn oil, twice daily for five days.
Setting [14] is: Table 5, HSV1, 100 mg/kg ip in corn oil, twice daily for five days.
Setting [15] is: HSV2, 1 mg/kg ip in corn oil, twice daily for five days.
[16] abbreviates: HSV2, 2.5 mg/kg ip in corn oil, twice daily for five days.
[17] abbreviates: HSV2, 5 mg/kg ip in corn oil, twice daily for five days.
[18] abbreviates: HSV1, 1 mg/kg ip in corn oil, twice daily for five days.
[19] abbreviates: HSV1, 2.5 mg/kg ip in corn oil, twice daily for five days.
Setting [20] is: HSV1, 5 mg/kg ip in corn oil, twice daily for five days.

With `O=c1[nH]c(Nc2ccccc2)nc2c1ncn2CCCCO` [HBPG, 2-phenylamino-6-oxo-9-(4-hydroxybutyl)purine], the “amount of viral DNA in the relevant nerve ganglia” value in the assay with HSV2 (HSV2) was “reduce the amount of viral DNA”; in the assay on HSV1 [2] (mice, HSV1), “reduce the amount of viral DNA”. Besides, in the assay with HSV2, the “frequency of hyperthermia-induced HSV2 reactivation” value was “reduce the frequency”. Besides, the “preventing recurrence of ocular HSV1 disease” value in the assay with HSV1 [1] (squirrel monkey model of latent HSV1 infection) and with HSV1 [2] (mouse model of latent HSV1 infection) was “clear efficacy” in each case. Moreover, in the assay with HSV1 [1] (squirrel monkeys), the “frequency of recurrent ocular HSV1 disease” value is listed as “reduce the frequency”. Further, the Survivors/treated in the assay on G strain of HSV-2 (setting [4]) is 3/10; with G strain of HSV-2 (setting [5]), 10/10*; with G strain of HSV-2 (setting [6]), 9/10*; with G strain of HSV-2 (setting [7]), 1/10; with G strain of HSV-2 (setting [8]) it was 3/10; in the assay with McKrae strain of HSV-1 (setting [9]), 1/10. Further, the Survivors/treated in the assay on McKrae strain of HSV-1 (setting [10]) is given as 6/10*; in the assay on McKrae strain of HSV-1 (setting [11]), 9/10*. Besides, the “Survivors/treated (%)” value is on record as “(30%)” in the assay on G strain of HSV-2 (setting [4]); “(100%)” in the assay with G strain of HSV-2 (setting [5]); “(90%)” in the assay with G strain of HSV-2 (setting [6]); “(10%)” in the assay on G strain of HSV-2 (setting [7]); “(30) %” in the assay with G strain of HSV-2 (setting [8]); “(60%)” with McKrae strain of HSV-1 (setting [10]). Further, in the assay on McKrae strain of HSV-1 (setting [11]), the “Survivors/treated (%)” value is given as “(90%)”. In addition, the “efficacy of HBPG alone” value is recorded as “no efficacy” in the assay on G strain of HSV-2 (HSV2, 25 or 50 mg/kg HBPG alone) and “no efficacy” in the assay on McKrae strain of HSV-1 (HSV1, 25 or 50 mg/kg HBPG alone). Also, the “frequency of hyperthermia-induced HSV1 reactivation” value in the assay with HSV1 [2] (mice) is given as “reduce the frequency”.

Consider `O=c1[nH]c(Nc2ccccc2)nc2c1ncn2[C@H]1C[C@H](O)[C@@H](CO)O1` [PhdG, N^2-phenyl-2′-deoxyguanosine], for which, in the assay on HSV1 [3], the “number of ganglia producing virus compared to control ganglia” value is given as “significantly reduced”.

`Nc1nc2c(ncn2COCCO)c(=O)[nH]1` [acyclovir]: the Survivors/treated in the assay on McKrae strain of HSV-1 (setting [12]) is given as 1/10; in the assay with McKrae strain of HSV-1 (setting [13]), 3/10; with McKrae strain of HSV-1 (setting [14]) it was 7/10. Besides, the entries for the “Survivors/treated (%)” value with McKrae strain of HSV-1 (setting [12]), in the assay with McKrae strain of HSV-1 (setting [13]) and in the assay with McKrae strain of HSV-1 (setting [14]) were 10%, 30% and 70%, respectively.

For the compound `Nc1ccn(C[C@@H](CO)OCP(=O)(O)O)c(=O)n1` [cidofovir], the Survivors/treated in the assay on G strain of HSV-2 (setting [15]) is on record as 0/10; in the assay with G strain of HSV-2 (setting [16]), 4/10; in the assay with G strain of HSV-2 (setting [17]) it was 10/10; in the assay with McKrae strain of HSV-1 (setting [18]), 0/10; with McKrae strain of HSV-1 (setting [19]), 3/10; in the assay with McKrae strain of HSV-1 (setting [20]), 9/10. The “Survivors/treated (%)” value is 0% with G strain of HSV-2 (setting [15]); 40% in the assay with G strain of HSV-2 (setting [16]); 100% in the assay on G strain of HSV-2 (setting [17]); 0% in the assay with McKrae strain of HSV-1 (setting [18]); 30% in the assay with McKrae strain of HSV-1 (setting [19]); 90% in the assay on McKrae strain of HSV-1 (setting [20]). The median effective dose was in the range of 2.5 to 5 mg/kg in the assay with G strain of HSV-2 (HSV2 encephalitis, ip twice daily for five days) and 2.5 to 5 mg/kg in the assay on McKrae strain of HSV-1 (HSV1 encephalitis, ip twice daily for five days).

On to `O=C(O)P(=O)(O)O` [foscarnet, phosphonoformate], for which the figures for the Survivors/treated in the assay with G strain of HSV-2 (setting [4]), with G strain of HSV-2 (setting [7]) and in the assay with McKrae strain of HSV-1 (setting [9]) were 0/10, 0/10 and 1/10, respectively. Besides, the “Survivors/treated (%)” value is “(0%)” with G strain of HSV-2 (setting [4]); “(40%)” in the assay on G strain of HSV-2 (setting [5]); “(60%)” in the assay on G strain of HSV-2 (setting [6]); “(0%)” in the assay on G strain of HSV-2 (setting [7]); “(10%)” with McKrae strain of HSV-1 (HSV1, 100 mg/kg ip twice daily, 5 days); “(50%)” in the assay with McKrae strain of HSV-1 (setting [10]). In the assay with McKrae strain of HSV-1 (setting [11]), the “Survivors/treated (%)” value was “(70%)”.

On to `O=c1[nH]c(Nc2cccc(C(F)(F)F)c2)nc2nc[nH]c12` [m-CF3PG, N^2-(m-trifluoromethylphenyl)guanine], for which the “number of ganglia producing virus compared to control ganglia” value in the assay with HSV1 [3] is on record as “significantly reduced”.
